From ChEMBL document CHEMBL1201862, “PubChem BioAssay data set” (2004)
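A five-concentration, 48-hour dose response in 96-well plates underlies each endpoint, interpolated linearly between surrounding concentrations. GI50 marks 50% less growth.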 The source made the active and inactive calls. No stated cut-off is given here; in the data, active = GI50 up to about 1.1 µM and inactive = higher.

Tests used:
Experiment in all cases: inhibition of tumour cell growth, NCI panel, 48 h
[1] = tested on: 786-0
[2] = tested on: A549
[3] = tested on: ACHN
[4] = tested on: CAKI-1
[5] = tested on: CCRF-CEM
[6] = tested on: COLO 205
[7] = tested on: DU-145
[8] = tested on: EKVX
[9] = tested on: HCC 2998
[10] = tested on: HCT-116
[11] = tested on: HCT-15
[12] = tested on: HL-60
[13] = tested on: HOP-62
[14] = tested on: HOP-92
[15] = tested on: HT-29
[16] = tested on: Hs-578T
[17] = tested on: IGROV-1
[18] = tested on: K562
[19] = tested on: KM12
[20] = tested on: LOX IMVI
[21] = tested on: M14
[22] = tested on: MCF7
[23] = tested on: MDA-MB-231
[24] = tested on: MDA-MB-435
[25] = tested on: MDA-N
[26] = tested on: MOLT-4
[27] = tested on: Malme-3M
[28] = tested on: NCI-H226
[29] = tested on: NCI-H23
[30] = tested on: NCI-H460
[31] = tested on: NCI-H522
[32] = tested on: NCI/ADR-RES
[33] = tested on: OVCAR-3
[34] = tested on: OVCAR-4
[35] = tested on: OVCAR-5
[36] = tested on: OVCAR-8
[37] = tested on: PC-3
[38] = tested on: RPMI-8226
[39] = tested on: RXF 393
[40] = tested on: SF-268
[41] = tested on: SF-295
[42] = tested on: SF-539
[43] = tested on: SK-MEL-28
[44] = tested on: SK-MEL-2
[45] = tested on: SK-MEL-5
[46] = tested on: SK-OV-3
[47] = tested on: SN12C
[48] = tested on: SNB-19
[49] = tested on: SNB-75
[50] = tested on: SR
[51] = tested on: SW-620
[52] = tested on: T47D
[53] = tested on: TK-10
[54] = tested on: U-251
[55] = tested on: UACC-257
[56] = tested on: UACC-62
[57] = tested on: UO-31
[58] = tested on: A498
[59] = tested on: BT-549

Compound: O=C(O)c1ccc(Nc2nc3ccc(C(F)(F)F)cc3nc2C(=O)O)cc1
- GI50 [1]: > 100 µM (inactive)
- GI50 [2]: > 100 µM (inactive)
- GI50 [3]: > 100 µM (inactive)
- GI50 [4]: > 100 µM (inactive)
- GI50 [5]: > 100 µM (inactive)
- GI50 [6]: > 100 µM (inactive)
- GI50 [7]: > 100 µM (inactive)
- GI50 [8]: > 100 µM (inactive)
- GI50 [9]: > 100 µM (inactive)
- GI50 [10]: > 100 µM (inactive)
- GI50 [11]: > 100 µM
- GI50 [12]: > 100 µM (inactive)
- GI50 [13]: > 100 µM (inactive)
- GI50 [14]: > 100 µM (inactive)
- GI50 [15]: > 100 µM (inactive)
- GI50 [16]: > 100 µM (inactive)
- GI50 [17]: > 100 µM (inactive)
- GI50 [18]: > 100 µM (inactive)
- GI50 [19]: > 100 µM (inactive)
- GI50 [20]: > 100 µM (inactive)
- GI50 [21]: > 100 µM (inactive)
- GI50 [22]: > 100 µM (inactive)
- GI50 [23]: > 100 µM (inactive)
- GI50 [24]: > 100 µM (inactive)
- GI50 [25]: > 100 µM (inactive)
- GI50 [26]: > 100 µM (inactive)
- GI50 [27]: > 100 µM (inactive)
- GI50 [28]: > 100 µM (inactive)
- GI50 [29]: > 100 µM (inactive)
- GI50 [30]: > 100 µM (inactive)
- GI50 [31]: > 100 µM (inactive)
- GI50 [32]: > 100 µM (inactive)
- GI50 [33]: > 100 µM (inactive)
- GI50 [34]: > 100 µM (inactive)
- GI50 [35]: > 100 µM (inactive)
- GI50 [36]: > 100 µM (inactive)
- GI50 [37]: > 100 µM (inactive)
- GI50 [38]: > 100 µM (inactive)
- GI50 [39]: > 100 µM (inactive)
- GI50 [40]: > 100 µM (inactive)
- GI50 [41]: > 100 µM (inactive)
- GI50 [42]: > 100 µM (inactive)
- GI50 [43]: > 100 µM (inactive)
- GI50 [44]: > 100 µM (inactive)
- GI50 [45]: > 100 µM (inactive)
- GI50 [46]: > 100 µM (inactive)
- GI50 [47]: > 100 µM (inactive)
- GI50 [48]: > 100 µM (inactive)
- GI50 [49]: > 100 µM (inactive)
- GI50 [50]: > 100 µM (inactive)
- GI50 [51]: > 100 µM (inactive)
- GI50 [52]: > 100 µM (inactive)
- GI50 [53]: > 100 µM (inactive)
- GI50 [54]: > 100 µM (inactive)
- GI50 [55]: > 100 µM (inactive)
- GI50 [56]: > 100 µM (inactive)
- GI50 [57]: > 100 µM (inactive)

Compound: Nc1ncnc2c1nc(O)n2-c1ccccc1
- GI50 [1]: > 100 µM (inactive)
- GI50 [58]: > 100 µM (inactive)
- GI50 [2]: > 100 µM (inactive)
- GI50 [3]: > 100 µM (inactive)
- GI50 [59]: > 100 µM (inactive)
- GI50 [4]: 78.9 µM (inactive)
- GI50 [6]: > 100 µM (inactive)
- GI50 [8]: 93.8 µM (inactive)
- GI50 [9]: > 100 µM (inactive)
- GI50 [10]: > 100 µM (inactive)
- GI50 [11]: > 100 µM
- GI50 [12]: > 100 µM (inactive)
- GI50 [13]: > 100 µM (inactive)
- GI50 [14]: 96.8 µM (inactive)
- GI50 [15]: > 100 µM (inactive)
- GI50 [16]: > 100 µM (inactive)
- GI50 [17]: > 100 µM (inactive)
- GI50 [18]: > 100 µM (inactive)
- GI50 [20]: > 100 µM (inactive)
- GI50 [21]: > 100 µM (inactive)
- GI50 [22]: > 100 µM (inactive)
- GI50 [24]: > 100 µM (inactive)
- GI50 [25]: > 100 µM (inactive)
- GI50 [26]: > 100 µM (inactive)
- GI50 [27]: > 100 µM (inactive)
- GI50 [29]: > 100 µM (inactive)
- GI50 [30]: > 100 µM (inactive)
- GI50 [32]: > 100 µM (inactive)
- GI50 [33]: > 100 µM (inactive)
- GI50 [34]: > 100 µM (inactive)
- GI50 [35]: > 100 µM (inactive)
- GI50 [36]: > 100 µM (inactive)
- GI50 [37]: > 100 µM (inactive)
- GI50 [38]: > 100 µM (inactive)
- GI50 [40]: > 100 µM (inactive)
- GI50 [41]: > 100 µM (inactive)
- GI50 [42]: > 100 µM (inactive)
- GI50 [43]: > 100 µM (inactive)
- GI50 [44]: > 100 µM (inactive)
- GI50 [45]: > 100 µM (inactive)
- GI50 [46]: > 100 µM (inactive)
- GI50 [47]: > 100 µM (inactive)
- GI50 [48]: > 100 µM (inactive)
- GI50 [50]: > 100 µM (inactive)
- GI50 [51]: > 100 µM (inactive)
- GI50 [53]: > 100 µM (inactive)
- GI50 [55]: > 100 µM (inactive)
- GI50 [56]: > 100 µM (inactive)
- GI50 [57]: 57.7 µM (inactive)
